Test results from ChEMBL document CHEMBL1151515, “Attempts to introduce chemotherapeutic nucleotides into cells: studies on the anti-HIV agent FDT” (Bioorg Med Chem Lett, 1991).
pEC50: −log10 of the molar value.

Assays:
T-cell line = test: Tested for its effective dose required to inhibit the replication of HIV-1 in human T-cell line; assay type: functional; conditions: read-out: ED50 (the source's name)
[1] = Tested for the cytotoxicity against HIV-1 in human T-cell line; assay type: cell-based; conditions: read-out: TD50 (the source's name)

| Structure (SMILES) | pEC50 (T-cell line) | CC50 [1] |
| --- | --- | --- |
| COC(=O)C(NP(=O)(OCC1OC(n2cc(C)c(=O)[nH]c2=O)CC1F)OCC(Cl)(Cl)Cl)C(C)C (stereo not given) | 6.52 | > 100 µM |
| COC(=O)C(Cc1ccccc1)NP(=O)(NC(Cc1ccccc1)C(=O)OC)OCC1OC(n2cc(C)c(=O)[nH]c2=O)CC1F (stereo not given) | 5.30 | > 100 µM |
| Cc1cn(C2CC(F)C(COP(=O)(OCC(Cl)(Cl)Cl)OCC(Cl)(Cl)Cl)O2)c(=O)[nH]c1=O (stereo not given) | 8.00 | 100 µM |

Further compounds by rising pEC50 (T-cell line), results first:

| pEC50 (T-cell line) | Structure (SMILES) | CC50 [1] |
| --- | --- | --- |
| 6.52 | COC(=O)C(C)NP(=O)(OCC1OC(n2cc(C)c(=O)[nH]c2=O)CC1F)OCC(Cl)(Cl)Cl (stereo not given) | > 100 µM |
| 8.30 | Cc1cn([C@H]2C[C@H](F)[C@@H](CO)O2)c(=O)[nH]c1=O [ALOVUDINE] | 100 µM |
